Data taken from patent US10793568B2, “Hormone receptor modulators for treating metabolic conditions and disorders” (ARDELYX, INC., priority 2016, dated 2020).
Where two headings read alike, the source gives them in different places.

Columns and labels:
[1] = target: ligand binding domain of human FXR (Homo sapiens (Human), UniProt Q96RI1); experiment: FXR ligand binding assay (LanthaScreen TR-FRET, SRC2-2 peptide recruitment); details: for Emax: read-out: % Efficacy
[2] = target: human Farnesoid X receptor ligand-binding domain/Gal4 DNA binding domain chimera (Homo sapiens (Human), UniProt Q96RI1); experiment: Cell-based assay of FXR activation (FXR-UAS-bla HEK 293T beta-lactamase reporter); details: cellular FXR beta-lactamase reporter assay; for Emax: HEK-293T, read-out: % Efficacy; for Emax / % Efficacy: extent of activation relative to GW4064; for EC50 / pEC50: FXR-UAS-bla HEK 293T cells, 16 h, pEC50 = -log EC50
Sequence of human Farnesoid X receptor ligand-binding domain/Gal4 DNA binding domain chimera (Q96RI1 262-486, change not shown): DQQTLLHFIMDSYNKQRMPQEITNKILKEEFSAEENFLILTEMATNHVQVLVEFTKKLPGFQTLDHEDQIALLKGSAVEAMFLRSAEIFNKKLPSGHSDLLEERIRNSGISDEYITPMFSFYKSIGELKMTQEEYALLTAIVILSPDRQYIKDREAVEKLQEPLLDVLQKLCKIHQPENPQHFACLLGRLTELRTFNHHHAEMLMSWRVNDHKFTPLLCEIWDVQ
Sequence of human Farnesoid X receptor ligand-binding domain/Gal4 DNA binding domain chimera (P04386 1-147 partner): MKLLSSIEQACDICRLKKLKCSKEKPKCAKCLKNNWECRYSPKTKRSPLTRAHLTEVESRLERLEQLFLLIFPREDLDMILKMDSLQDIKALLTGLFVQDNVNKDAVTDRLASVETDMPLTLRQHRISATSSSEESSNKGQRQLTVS
Summary of the method: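 HEK 293T cells stably expressing a Gal4-fused human FXR LBD and a UAS-driven beta-lactamase reporter were incubated with serially diluted compounds for 16 h at 37 °C in phenol red-free DMEM with 2% charcoal-stripped FBS. CCF4 FRET read-out: excitation 409 nm, emission 447 nm. pEC50 comes from a 3-parameter logistic fit, and efficacy is given as % of GW4064.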

[3] = -log EC50, concentration required to produce 50% activation
[4] = extent of activation relative to GW4064

Sequence of ligand binding domain of human FXR (Q96RI1 262-486): as the sequence (Q96RI1 262-486, change not shown) above

Structure (SMILES) | pEC50 [1, 3] | Emax [1, 4] | Emax [2] | EC50 [2] | Emax [1] | EC50 [1, 3] | % Efficacy [1, 4] | pEC50 [2] | % Efficacy [2]
CC(=O)OCCCS(=O)(=O)NC(=O)c1ccc(N2C[C@@H]3C[C@H]2C[C@H]3OCc2c(-c3c(Cl)cccc3Cl)noc2C2CC2)cc1 [Compound I-214, 3-[({4-[(1S,4S,5R)-5-{[5-cyclopropyl-3-(2,6-dichlorophenyl)-1,2-oxazol-4-yl]methoxy}-2-azabicyclo[2.2.1]heptan-2-yl]phenyl}formamido)sulfonyl]propyl Acetate] | 8.6 | 138% | 105% | 2.51 nM |  |  |  |  | 
O=C(NS(=O)(=O)CCCO)c1ccc(N2C[C@@H]3C[C@H]2C[C@H]3OCc2c(-c3c(Cl)cccc3Cl)noc2C2CC2)cc1 [Compound I-215, 4-[(1S,4S,5R)-5-{[5-cyclopropyl-3-(2,6-dichlorophenyl)-1,2-oxazol-4-yl]methoxy}-2-azabicyclo[2.2.1]heptan-2-yl]-N-(3-hydroxypropanesulfonyl)benzamide] | 8.6 | 142% | 107% | 1.58 nM |  |  |  |  | 
CC(=O)OC(C)CCS(=O)(=O)NC(=O)c1ccc(N2C[C@@H]3C[C@H]2C[C@H]3OCc2c(-c3c(Cl)cccc3Cl)noc2C2CC2)cc1 (stereo partly drawn) [Compound I-216, 4-[({4-[(1S,4S,5R)-5-{[5-cyclopropyl-3-(2,6-dichlorophenyl)-1,2-oxazol-4-yl]methoxy}-2-azabicyclo[2.2.1]heptan-2-yl]phenyl}formamido)sulfonyl]butan-2-yl Acetate] | 9.4 |  | 112% | 0.398 nM | 145% |  |  |  | 
CC(O)CCS(=O)(=O)NC(=O)c1ccc(N2C[C@@H]3C[C@H]2C[C@H]3OCc2c(-c3c(Cl)cccc3Cl)noc2C2CC2)cc1 (stereo partly drawn) [Compound I-217, 4-[(1S,4S,5R)-5-{[5-cyclopropyl-3-(2,6-dichlorophenyl)-1,2-oxazol-4-yl]methoxy}-2-azabicyclo[2.2.1]heptan-2-yl]-N-(3-hydroxybutanesulfonyl)benzamide] | 9.9 |  | 111% | 1 nM | 142% |  |  |  | 
CC(CCS(=O)(=O)NC(=O)c1ccc(N2C[C@@H]3C[C@H]2C[C@H]3OCc2c(-c3c(Cl)cccc3Cl)noc2C2CC2)cc1)OC(=O)CCC(=O)O (stereo partly drawn) [Compound I-218, 4-({4-[({4-[(1S,4S,5R)-5-{[5-cyclopropyl-3-(2,6-dichlorophenyl)-1,2-oxazol-4-yl]methoxy}-2-azabicyclo[2.2.1]heptan-2-yl]phenyl}formamido)sulfonyl]butan-2-yl}oxy)-4-oxobutanoic Acid] |  | 146% | 101% | 5.01 nM |  | 2.51 nM |  |  | 
O=C(NS(=O)(=O)CCC(O)CO)c1ccc(N2C[C@@H]3C[C@H]2C[C@H]3OCc2c(-c3c(Cl)cccc3Cl)noc2C2CC2)cc1 (stereo partly drawn) [Compound I-219, 4-[(1S,4S,5R)-5-{[5-cyclopropyl-3-(2,6-dichlorophenyl)-1,2-oxazol-4-yl]methoxy}-2-azabicyclo[2.2.1]heptan-2-yl]-N-(3,4-dihydroxybutanesulfonyl)benzamide] | 8.6 | 144% | 104% | 39.8 nM |  |  |  |  | 
O=C(NS(=O)(=O)[C@H]1CC[C@@H](O)CC1)c1ccc(N2C[C@@H]3C[C@H]2C[C@H]3OCc2c(-c3c(Cl)cccc3Cl)noc2C2CC2)cc1 [Compound I-220, 4-[(1S,4S,5R)-5-{[5-cyclopropyl-3-(2,6-dichlorophenyl)-1,2-oxazol-4-yl]methoxy}-2-azabicyclo[2.2.1]heptan-2-yl]-N-{[(1s,4s)-4-hydroxycyclohexyl]sulfonyl}benzamide] | 8.7 |  |  |  |  |  | 154% | 9.6 | 108%
O=C(NS(=O)(=O)[C@H]1CC[C@H](O)CC1)c1ccc(N2C[C@@H]3C[C@H]2C[C@H]3OCc2c(-c3c(Cl)cccc3Cl)noc2C2CC2)cc1 [Compound I-221, 4-[(1S,4S,5R)-5-{[5-cyclopropyl-3-(2,6-dichlorophenyl)-1,2-oxazol-4-yl]methoxy}-2-azabicyclo[2.2.1]heptan-2-yl]-N-{[(1r,4r)-4-hydroxycyclohexyl]sulfonyl}benzamide] | 8.8 |  |  |  |  |  | 147% | 9.5 | 108%
O=C(NS(=O)(=O)CCCCCCCCCCNC(=O)[C@H](O)[C@@H](O)[C@H](O)[C@H](O)CO)c1ccc(N2C[C@@H]3C[C@H]2C[C@H]3OCc2c(-c3c(Cl)cccc3Cl)noc2C2CC2)c(F)c1 [Compound I-223, (2R,3S,4R,5R)—N-{10-[({4-[(1S,4S,5R)-5-{[5-cyclopropyl-3-(2,6-dichlorophenyl)-1,2-oxazol-4-yl]methoxy}-2-azabicyclo[2.2.1]heptan-2-yl]-3-fluorophenyl}formamido)sulfonyl]decyl}-2,3,4,5,6-pentahydroxyhexanamide] | 8.6 | 144% |  | < 31.6 nM |  |  |  |  | 
CC(=O)NCCCCCCCCCCS(=O)(=O)NC(=O)c1ccc(N2C[C@@H]3C[C@H]2C[C@H]3OCc2c(-c3c(Cl)cccc3Cl)noc2C2CC2)c(F)c1 [Compound I-224, N-{10-[({4-[(1S,4S,5R)-5-{[5-cyclopropyl-3-(2,6-dichlorophenyl)-1,2-oxazol-4-yl]methoxy}-2-azabicyclo[2.2.1]heptan-2-yl]-3-fluorophenyl}formamido)sulfonyl]decyl}acetamide] | 8.1 | 155% | 104% | 2.51 nM |  |  |  |  | 
COCC(=O)NCCCCCCCCCCS(=O)(=O)NC(=O)c1ccc(N2C[C@@H]3C[C@H]2C[C@H]3OCc2c(-c3c(Cl)cccc3Cl)noc2C2CC2)c(F)c1 [Compound I-225, N-{10-[({4-[(1S,4S,5R)-5-{[5-cyclopropyl-3-(2,6-dichlorophenyl)-1,2-oxazol-4-yl]methoxy}-2-azabicyclo[2.2.1]heptan-2-yl]-3-fluorophenyl}formamido)sulfonyl]decyl}-2-methoxyacetamide] | 9.5 | 166% | 103% | 2 nM |  |  |  |  | 
CC[N+](C)(CC)CCCCCCCCCCS(=O)(=O)NC(=O)c1ccc(N2C[C@@H]3C[C@H]2C[C@H]3OCc2c(-c3c(Cl)cccc3Cl)noc2C2CC2)c(F)c1 [Compound I-226] |  | 148% | 152% |  |  |  |  | 6.6 | 
O=C(NS(=O)(=O)CCCCCCCCCCN1CCC1)c1ccc(N2C[C@@H]3C[C@H]2C[C@H]3OCc2c(-c3c(Cl)cccc3Cl)noc2C2CC2)c(F)c1 [Compound I-227, N-[10-(azetidin-1-yl)decanesulfonyl]-4-[(1S,4S,5R)-5-{[5-cyclopropyl-3-(2,6-dichlorophenyl)-1,2-oxazol-4-yl]methoxy}-2-azabicyclo[2.2.1]heptan-2-yl]-3-fluorobenzamide] | 8.1 | 163% | 97% | 1 nM |  |  |  |  | 
O=C(NS(=O)(=O)C1CC1)c1ccc(N2C[C@@H]3C[C@H]2C[C@H]3OCc2c(C3CCC4(CC3)CC4)noc2C2CC2)cc1 [Compound I-228, 4-((1S,4S,5R)-5-((5-cyclopropyl-3-(spiro[2.5]octan-6-yl)isoxazol-4-yl)methoxy)-2-azabicyclo[2.2.1]heptan-2-yl)-N-(cyclopropylsulfonyl)benzamide] | 7 | 134% | 105% | 20 nM |  |  |  |  | 
O=C(NS(=O)(=O)C1CC1)c1ccc(N2C[C@@H]3C[C@H]2C[C@H]3OCc2c(C3CCC4(CC3)CC4)noc2C2CC2)c(F)c1 [Compound I-229, 4-((1S,4S,5R)-5-((5-cyclopropyl-3-(spiro[2.5]octan-6-yl)isoxazol-4-yl)methoxy)-2-azabicyclo[2.2.1]heptan-2-yl)-N-(cyclopropylsulfonyl)-3-fluorobenzamide] | 7.4 | 150% | 101% | 39.8 nM |  |  |  |  | 
O=C(NS(=O)(=O)C1CCOCC1)c1ccc(N2C[C@@H]3C[C@H]2C[C@H]3OCc2c(C3CCC4(CC3)CC4)noc2C2CC2)c(F)c1 [Compound I-230, 4-((1S,4S,5R)-5-((5-cyclopropyl-3-(spiro[2.5]octan-6-yl)isoxazol-4-yl)methoxy)-2-azabicyclo[2.2.1]heptan-2-yl)-3-fluoro-N-((tetrahydro-2H-pyran-4-yl)sulfonyl)benzamide] | 8 | 150% | 104% | 6.31 nM |  |  |  |  | 
O=C(NS(=O)(=O)C1CC1)c1ccc(N2C[C@H]3C[C@@H]2C[C@@H]3OCc2c(-c3c(Cl)cccc3Cl)noc2C2CC2)c(F)c1 [Compound I-231, 4-((1R,4R,5S)-5-((5-cyclopropyl-3-(2,6-dichlorophenyl)isoxazol-4-yl)methoxy)-2-azabicyclo[2.2.1]heptan-2-yl)-N-(cyclopropylsulfonyl)-3-fluorobenzamide] | 8.4 | 110% | 106% | 15.8 nM |  |  |  |  | 
O=C(NS(=O)(=O)C1CC1)c1ccc(N2C[C@H]3C[C@@H]2C[C@@H]3OCc2c(-c3c(Cl)cccc3Cl)noc2C2CC2)cc1 [Compound I-232, 4-((1R,4R,5S)-5-((5-cyclopropyl-3-(2,6-dichlorophenyl)isoxazol-4-yl)methoxy)-2-azabicyclo[2.2.1]heptan-2-yl)-N-(cyclopropylsulfonyl)benzamide] | 8.1 | 126% | 93% | 25.1 nM |  |  |  |  | 
Cn1nc(C(=O)NS(=O)(=O)C2CC2)cc1N1C[C@@H]2C[C@H]1C[C@H]2OCc1c(-c2c(Cl)cccc2Cl)noc1C1CC1 [Compound I-233, N-(cyclopropanesulfonyl)-5-[(1S,4S,5R)-5-{[5-cyclopropyl-3-(2,6-dichlorophenyl)-1,2-oxazol-4-yl]methoxy}-2-azabicyclo[2.2.1]heptan-2-yl]-1-methyl-1H-pyrazole-3-carboxamide] | 7.8 | 77% |  | < 31.6 nM |  |  |  |  | 
